Test results published in US10918642B2, “N-(substituted-phenyl)-sulfonamide derivatives as kinase inhibitors” (Nerviano Medical Sciences S.R.L., priority 2016, dated 2021).

Target: PERK recombinant enzyme (cytoplasmic domain corresponding to residues 540-1115) (Homo sapiens (Human), UniProt Q9NZJ5)
Assay: PERK enzyme assay, Method 2: quantification of phosphorylated product with ATP/P33 gammaATP (Dowex resin)
Type: biochemical
Conditions: Method 2 (P33 gammaATP radiometric); 52 microM ATP, 8 nM PERK, 300 microM eIF2alpha peptide substrate, 60 minutes at room temperature
Description: The biochemical activity of compounds was determined by incubation with PERK recombinant enzyme (cytoplasmic domain corresponding to residues 540-1115) and elF2alpha peptide substrate (Aminoacid sequence: LLSELSRRRIRSINK—SEQ ID Nr: 1; purchased from American Peptide Company, product #341923). This was followed by:
Method 2: Quantification of the Phosphorylated Product Formed from the Kinase Reaction in Presence of ATP (Aldrich, Cat #A2620-9).
Serially diluted compounds were incubated for 60 minutes at room temperature in the presence of ATP/P^33 gammaATP mix, substrate and enzyme in a volume of 15 microL of kinase buffer in 384-well plates (Thermo Scientific, cat #4312).
The reaction volume contains, in final concentration, 52 microM ATP, 8 nM PERK and 300 microM substrate in 50 mM Hepes pH 7.5, 3 mM MgCl2, 1 mM DTT, 3 microM Na3VO4, 0.2 mg/ml BSA. The final concentration of DMSO was 1%.
At the end of the incubation, an amount of 60 microL of Dowex resin (Sigma, customized resin 1×8 200-400 mesh cat #13858-U) in 150 mM sodium formate buffer pH=3.0 was added to stop the reaction and capture unreacted ATP/P^33 gammaATP, separating it from the phosphorylated substrate in solution. After 60 minutes of rest, a volume of 22 microL of supernatant was transferred into 384-Optiplates (Perkin-Elmer, cat #6007290). After the addition of 50 microL of Microscint 40 (Perkin-Elmer, cat #6013641), the radioactivity was counted in the TopCount (Perkin Elmer).
The data per each molecule are analyzed by an internally customized version of the SW package “Assay Explorer”, or by GraphPad Prizm software alternatively, which provides sigmoidal fittings of the curves for IC50 determination using a 4 parameter logistic equation: y=bottom+(top−bottom)/(1+10^((log IC50−x)*slope))
where x is the logarithm of the inhibitor concentration, y is the response; y starts at bottom and goes to top with a sigmoid shape.

Sequence of PERK recombinant enzyme (cytoplasmic domain corresponding to residues 540-1115) (Q9NZJ5 540-1115): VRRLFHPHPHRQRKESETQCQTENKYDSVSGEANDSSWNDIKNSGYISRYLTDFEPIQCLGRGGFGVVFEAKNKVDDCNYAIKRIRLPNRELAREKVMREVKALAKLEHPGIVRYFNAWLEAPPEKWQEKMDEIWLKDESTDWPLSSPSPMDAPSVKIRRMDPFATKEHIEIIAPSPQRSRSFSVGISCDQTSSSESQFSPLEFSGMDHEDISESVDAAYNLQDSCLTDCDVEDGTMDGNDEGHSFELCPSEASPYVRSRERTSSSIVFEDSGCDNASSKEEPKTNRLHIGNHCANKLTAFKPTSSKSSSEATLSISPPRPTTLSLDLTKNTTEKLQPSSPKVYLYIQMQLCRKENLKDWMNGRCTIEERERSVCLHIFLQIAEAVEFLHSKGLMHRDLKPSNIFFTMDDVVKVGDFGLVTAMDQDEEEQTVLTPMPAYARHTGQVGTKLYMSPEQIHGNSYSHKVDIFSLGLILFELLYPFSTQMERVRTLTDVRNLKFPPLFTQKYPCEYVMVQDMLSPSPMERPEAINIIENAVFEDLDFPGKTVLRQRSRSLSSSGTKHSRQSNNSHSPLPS

| IC50 | pIC50 | SMILES |
| --- | --- | --- |
| 15.8 to 50.1 nM |  | COc1ccc(S(=O)(=O)Nc2cccc(-c3nn(C4CCNCC4)c4ncnc(N)c34)c2F)cc1Cl [cmpd 63, N-[3-(4-Amino-1-piperidin-4-yl-1H-pyrazolo[3,4-d]pyrimidin-3-yl)-2-fluoro-phenyl]-3-chloro-4-methoxy-benzenesulfonamide] |
|  | C (pIC50 < 6.8) | COc1cc(F)c(S(=O)(=O)Nc2cccc(-c3nn(C4CCN(C(=O)OC(C)(C)C)CC4)c4ncnc(N)c34)c2F)cc1Cl [cmpd 10, 4-{4-Amino-3-[3-(5-chloro-2-fluoro-4-methoxy-benzenesulfonylamino)-2-fluoro-phenyl]-pyrazolo[3,4-d]pyrimidin-1-yl}-piperidine-1-carboxylic acid tert-butyl ester] |
| 15.8 to 50.1 nM |  | CN1CCC(n2cc(-c3cccc(NS(=O)(=O)c4ccc(Br)cc4F)c3F)c3c(N)ncnc32)CC1 [cmpd 72, N-{3-[4-Amino-7-(1-methyl-piperidin-4-yl)-7H-pyrrolo[2,3-d]pyrimidin-5-yl]-2-fluoro-phenyl}-4-bromo-2-fluoro-benzenesulfonamide] |
| 15.8 to 50.1 nM |  | CN1CCC(n2cc(-c3cccc(NS(=O)(=O)c4ccc(Br)s4)c3F)c3c(N)ncnc32)CC1 [cmpd 77, 5-Bromo-thiophene-2-sulfonic acid {3-[4-amino-7-(1-methyl-piperidin-4-yl)-7H-pyrrolo[2,3-d]pyrimidin-5-yl]-2-fluoro-phenyl}-amide] |
| 15.8 to 50.1 nM |  | COc1cc(F)c(S(=O)(=O)Nc2cccc(-c3nn(C4CCNCC4)c4ncnc(N)c34)c2F)cc1Cl [cmpd 62, N-[3-(4-Amino-1-piperidin-4-yl-1H-pyrazolo[3,4-d]pyrimidin-3-yl)-2-fluoro-phenyl]-5-chloro-2-fluoro-4-methoxy-benzenesulfonamide] |
| 50.1 to 158 nM |  | COc1cc(F)c(S(=O)(=O)Nc2cccc(-c3nn(C4CCN(C(C)C)CC4)c4ncnc(N)c34)c2F)cc1Cl [cmpd 65, N-{3-[4-Amino-1-(1-isopropyl-piperidin-4-yl)-1H-pyrazolo[3,4-d]pyrimidin-3-yl]-2-fluoro-phenyl}-5-chloro-2-fluoro-4-methoxy-benzenesulfonamide] |
|  | C (pIC50 < 6.8) | COc1ccc(S(=O)(=O)Nc2cccc(-c3nn(C4CCN(C(=O)OC(C)(C)C)CC4)c4ncnc(N)c34)c2F)cc1Cl [cmpd 11, 4-{4-Amino-3-[3-(3-chloro-4-methoxy-benzenesulfonylamino)-2-fluoro-phenyl]-pyrazolo[3,4-d]pyrimidin-1-yl}-piperidine-1-carboxylic acid tert-butyl ester] |
|  | AA (7.8 ≤ pIC50) | COc1cc(F)c(S(=O)(=O)Nc2cccc(-c3cn(C4CCN(C)CC4)c4ncnc(N)c34)c2F)cc1C [cmpd 73, N-{3-[4-Amino-7-(1-methyl-piperidin-4-yl)-7H-pyrrolo[2,3-d]pyrimidin-5-yl]-2-fluoro-phenyl}-2-fluoro-4-methoxy-5-methyl-benzenesulfonamide] |
|  | AA (7.8 ≤ pIC50) | CN1CCC(n2cc(-c3cccc(NS(=O)(=O)c4ccc(Cl)c(Cl)c4)c3F)c3c(N)ncnc32)CC1 [cmpd 71, N-{3-[4-Amino-7-(1-methyl-piperidin-4-yl)-7H-pyrrolo[2,3-d]pyrimidin-5-yl]-2-fluoro-phenyl}-3,4-dichloro-benzenesulfonamide] |
| 50.1 to 158 nM |  | COc1ccc(S(=O)(=O)Nc2cccc(-c3nn(C4CCN(C)CC4)c4ncnc(N)c34)c2F)cc1Cl [cmpd 66, N-{3-[4-Amino-1-(1-methyl-piperidin-4-yl)-1H-pyrazolo[3,4-d]pyrimidin-3-yl]-2-fluoro-phenyl}-3-chloro-4-methoxy-benzenesulfonamide] |
|  | C (pIC50 < 6.8) | Cn1cc(-c2cccc(NS(=O)(=O)C3CCCCC3)c2F)c2c(N)ncnc21 [cmpd 89, Cyclohexanesulfonic acid [3-(4-amino-7-methyl-7H-pyrrolo[2,3-d]pyrimidin-5-yl)-2-fluoro-phenyl]-amide] |
| 50.1 to 158 nM |  | COc1cc(F)c(S(=O)(=O)Nc2cccc(-c3cn(C)c4ncnc(N)c34)c2C#N)cc1Cl [cmpd 90, N-[3-(4-Amino-7-methyl-7H-pyrrolo[2,3-d]pyrimidin-5-yl)-2-cyano-phenyl]-5-chloro-2-fluoro-4-methoxy-benzenesulfonamide] |
| 15.8 to 50.1 nM |  | COc1cc(S(=O)(=O)Nc2cccc(-c3cn(C)c4ncnc(N)c34)c2F)c(F)cc1Cl [cmpd 79, N-[3-(4-Amino-7-methyl-7H-pyrrolo[2,3-d]pyrimidin-5-yl)-2-fluoro-phenyl]-4-chloro-2-fluoro-5-methoxy-benzenesulfonamide] |
| 15.8 to 50.1 nM |  | COc1cc(F)c(S(=O)(=O)Nc2cccc(-c3nn(C4CCN(C)CC4)c4ncnc(N)c34)c2F)cc1Cl [cmpd 61, N-{3-[4-Amino-1-(1-methyl-piperidin-4-yl)-1H-pyrazolo[3,4-d]pyrimidin-3-yl]-2-fluoro-phenyl}-5-chloro-2-fluoro-4-methoxy-benzenesulfonamide] |
